Patent US20220169632A1, “METHODS AND MATERIALS FOR INCREASING OR MAINTAINING NICOTINAMIDE MONONUCLEOTIDE ADENYLYL TRANSFERASE-2 (NMNAT2) POLYPEPTIDE LEVELS” (University of Pittsburgh - Of the Commonwealth System of …, priority 2019, published 2022)

test system: NMNAT2-V5 polypeptide; assay: NMNAT2-V5 polypeptide expression in transfected Beas2B cells (Western blot), dose dependent, 24 h; format: cell-based; settings: Beas2B cells transfected with NMNAT2-V5 plasmid, compound for 24 hours, read-out: A: compound efficacy (IC50) for NMNAT2 activation
Description: FIG. 1. Beas2B cells were transfected with NMNAT2-V5 plasmid. 24 hours later, cells were treated with compounds in a dose dependent manner (0, 1, 5, and 25 μM) for additional 24 hours. Cells were then collected and assayed for NMNAT2-V5 protein expression.
Selected compounds were tested in vitro. Briefly, Beas2B cells were transfected with NMNAT2-V5 plasmid. 24 hours later, cells were treated with a test compound in a dose dependent manner for additional 24 hours. Cells were then collected and assayed for NMNAT2-V5 polypeptide expression. Results of the assay are shown in Table A. Western blots showing levels of NMNAT2-V5 polypeptide for selected compounds are shown in FIG. 1.

Structure (SMILES) | IC50 [µM]
O=C(COCc1cc(-c2cccs2)sn1)NCCN1CCC(Cc2ccccc2)CC1 [BC18115] | 5 to 25
CC(=O)Nc1ccc(NC(=O)c2ccccc2OCc2nc(-c3ccc(C)cc3)ns2)cc1 [BC18116] | ≥ 25
COc1ccc(OC)c(CCNC(=O)C(Cc2ccccc2)N2Cc3ccccc3C2)c1 (centres unmarked) [BC18117] | 5 to 25
COc1ccc(OCC(=O)Nc2ccc3c(c2)nc(CCNC(=O)c2cccs2)n3C)cc1 [BC18118] | ≥ 25
O=C(CCc1nnc2n(Cc3ccccc3)c(=O)c3ccccc3n12)N1CCN(CCOc2ccc(Cl)cc2)CC1 [BC18120] | < 5
CN(CCc1nsc(-c2ccc(C(=O)NCc3ccc4c(c3)OCO4)cc2)n1)C(=O)c1ccccc1 [BC18121] | ≥ 25
O=C(Cn1c(=O)[nH]c2ccccc2c1=O)NCc1ccncc1 [BC18122] | 5 to 25
Cc1n[nH]c(/C=C/c2ccc(N)cc2)c1S(=O)(=O)N1CCC(C(=O)N2CCN(Cc3ccc4c(c3)OCO4)CC2)CC1 [BC18123] | < 5
O=C(COc1ccc(F)cc1)N1CCN(Cc2cccc(-c3n[nH]c(-c4cccc(Cl)c4)n3)c2)CC1 [BC18124] | < 5
Cc1ccc2onc(CNC(=O)NCc3cccc(Cl)c3)c2c1 [BC18125] | < 5
O=C(Cn1ccc2ccc(F)cc21)NCc1ccco1 [BC18126] | < 5
O=C(Cn1ccc2ccc(F)cc21)NCc1ccccn1 [BC18127] | 5 to 25
Cc1cc(C)n(CC(=O)NCc2ccco2)c(=O)c1C#N [BC18128] | < 5
Cc1ccc2onc(CNC(=O)NCc3ccccn3)c2c1 [BC18129] | 5 to 25
O=C(CSC1=Nc2ccccc2C2=NC(CCC(=O)N3CCN(c4ccccc4)CC3)C(=O)C12)NCC1CCCO1 (centres unmarked) [BC18130] | 5 to 25
CCn1cc(C(=O)NC(C)c2ccc3c(c2)OCCO3)c(=O)c2cc(S(=O)(=O)N3CCc4ccccc4C3)ccc21 (centres unmarked) [BC18131] | 5 to 25
O=C(COc1nc2cc(C(=O)NCc3ccc(F)cc3)ccc2c(=O)n1CCOO)c1ccc(O)cc1 [BC18132] | < 5
COc1ccc(OC)c(CCNC(=O)C(Cc2ccccc2)N2Cc3ccccc3C2=O)c1 (centres unmarked) [BC18133] | 5 to 25
COc1cccc(NS(=O)(=O)c2ccc3[nH]cc(C(=O)NC(C)c4ccc5c(c4)OCCO5)c(=O)c3c2)c1 (centres unmarked) [BC18134] | ≥ 25
N#Cc1nc(-c2ccc(COc3ccccc3)s2)sc1OCCc1ccc(ON)cc1 [BC18135] | ≥ 25
O=C(COCc1cc(-c2cccs2)sn1)NCCN1CCC(Cc2ccccc2)CC1 [BC18136] | ≥ 25
CC(=O)Nc1ccc(NC(=O)c2ccccc2OCc2nc(-c3ccc(C)cc3)ns2)cc1 [BC18137] | 5 to 25
COc1ccc(OC)c(CCNC(=O)C(Cc2ccccc2)N2Cc3ccccc3C2=O)c1 (centres unmarked) [BC18138] | 5 to 25

test system: NMNAT2; assay: NMNAT2-Hibit nano-luciferase activity in transfected U87MG cells, 5 μM, 48 hours; format: cell-based; settings: NMNAT2-Hibit luciferase plasmid, 48 hours (Table D)
Description: Selected compounds were tested in vitro. Briefly, U87MG cells were transfected with NMNAT2-Hibit luciferase plasmid. Cells were treated with test compound at 5 μM for 48 hours. Cells were then collected and assayed for nano-luciferase activity.

Structure (SMILES) | D: compound efficacy for NMNAT2 activation; increase in NMNAT2 luciferase activity
Cc1ccc2c(c1)c(=O)c(C(=O)c1ccncc1)cn2CC(=O)NCc1ccc(Cl)cc1 [BC181251] | ++ (“++” >20% and <100% increase in NMNAT2 luciferase activity.)
Cc1ccc2c(c1)c(=O)c(C(=O)c1ccncc1)cn2CC(=O)NCc1ccc(F)cc1 [BC181252] | ++ (“++” >20% and <100% increase in NMNAT2 luciferase activity.)
O=C(Cn1cc(C(=O)c2ccncc2)c(=O)c2cc(F)ccc21)NCc1ccccc1 [BC181253] | ++ (“++” >20% and <100% increase in NMNAT2 luciferase activity.)
Cc1cc2c(=O)c(C(=O)c3ccncc3)cn(CC(=O)NCc3ccccc3)c2cc1C [BC181254] | ++ (“++” >20% and <100% increase in NMNAT2 luciferase activity.)
Cc1ccc(CNC(=O)Cn2cc(C(=O)c3ccncc3)c(=O)c3cc(C)c(C)cc32)cc1 [BC181255] | + (“+” <20% increase in NMNAT2 luciferase activity.)
O=C(Cn1cc(C(=O)c2ccncc2)c(=O)c2cc(Br)ccc21)NCc1ccccc1 [BC181256] | + (“+” <20% increase in NMNAT2 luciferase activity.)
O=C(Cn1cc(C(=O)c2ccccc2)c2ccccc21)NCc1ccc2c(c1)OCCCO2 [BC181257] | + (“+” <20% increase in NMNAT2 luciferase activity.)
Cc1ccc(Cn2cc(C(CC(=O)NCc3ccco3)c3ccc(C)cc3)c3ccccc32)cc1 (centres unmarked) [BC181258] | ++ (“++” >20% and <100% increase in NMNAT2 luciferase activity.)
Cc1ccc(Cn2cc(C(CC(=O)NCc3ccco3)c3cccc(C)c3)c3ccccc32)cc1 (centres unmarked) [BC181259] | ++ (“++” >20% and <100% increase in NMNAT2 luciferase activity.)
Cc1ccc(Cn2cc(C(CC(=O)NCc3ccco3)c3ccccc3C)c3ccccc32)cc1 (centres unmarked) [BC181260] | ++ (“++” >20% and <100% increase in NMNAT2 luciferase activity.)
COc1ccc(C(CC(=O)NCc2ccco2)c2cn(Cc3ccc(C)cc3)c3ccccc23)cc1 (centres unmarked) [BC181261] | ++ (“++” >20% and <100% increase in NMNAT2 luciferase activity.)
Cc1ccc(Cn2cc(C(CC(=O)NCc3ccco3)c3ccc(C)cc3)c3ccccc32)cc1 (centres unmarked) [BC181262] | ++ (“++” >20% and <100% increase in NMNAT2 luciferase activity.)
COc1ccc(Cn2cc(C(CC(=O)NCc3ccco3)C(C)(C)C)c3ccccc32)cc1 (centres unmarked) [BC181263] | ++ (“++” >20% and <100% increase in NMNAT2 luciferase activity.)
O=C(CC(CCc1ccccc1)c1cn(Cc2ccccc2)c2ccccc12)NCc1ccco1 (centres unmarked) [BC181264] | + (“+” <20% increase in NMNAT2 luciferase activity.)
Cc1ccc(Cn2cc(C(CC(=O)NCc3ccco3)C(C)C)c3ccccc32)cc1 (centres unmarked) [BC181265] | + (“+” <20% increase in NMNAT2 luciferase activity.)
CC(=O)c1cn(CC(=O)NCc2ccncc2)c2ccccc12 [BC181266] | + (“+” <20% increase in NMNAT2 luciferase activity.)
CC(=O)c1cn(CC(=O)NCc2ccc(C)cc2)c2ccccc12 [BC181267] | + (“+” <20% increase in NMNAT2 luciferase activity.)
CC(=O)c1cn(CC(=O)NCCn2ccc3ccc(C)cc32)c2ccccc12 [BC181268] | ++ (“++” >20% and <100% increase in NMNAT2 luciferase activity.)
